Data on two molecules can be found in the NIST ThermoML archive (doi:10.1016/j.jct.2012.05.001).

Numbers after ± are expanded uncertainties.

For the series the following is noted: 101.33 kPa, Liquid; for viscosity: Falling or rolling sphere viscometry; for mass density: Vibrating tube method.

A word on the viscosity: it is the internal friction of a fluid under shear. A word on the mass density: it is the mass of a sample divided by its volume. With `NCCO.O=CO` [2-hydroxyethylammonium formate], the viscosity (293.15 K) was 67.61 ± 1.1 mPa·s; the viscosity (298.15 K) is reported as 52.01 ± 0.61 mPa·s; the viscosity (303.15 K) is 40.51 ± 0.52 mPa·s; the viscosity (323.15 K) was 18.19 ± 0.26 mPa·s; the viscosity (343.15 K) is 9.698 ± 0.14 mPa·s. The mass density by setting is: (293.15 K) 1178.5 ± 25 kg/m3; (298.15 K) 1175.1 ± 25 kg/m3; (303.15 K) 1171.7 ± 25 kg/m3; (323.15 K) 1158.1 ± 25 kg/m3; (343.15 K) 1144.3 ± 25 kg/m3.

`O=C[O-].OCC[NH2+]CCO` [diethanolammonium formate]: the viscosity (293.15 K) is 807.6 ± 98 mPa·s; the viscosity (298.15 K) was 533.41 ± 56 mPa·s; the viscosity (303.15 K) came out at 369.63 ± 32 mPa·s; the viscosity (323.15 K) worked out at 106.16 ± 3.9 mPa·s; the viscosity (343.15 K) is on record as 41.09 ± 0.8 mPa·s. Also, the mass density runs as follows: (293.15 K) 1205 ± 25 kg/m3; (298.15 K) 1201.7 ± 25 kg/m3; (303.15 K) 1198.3 ± 25 kg/m3; (323.15 K) 1185 ± 25 kg/m3; (343.15 K) 1171.7 ± 25 kg/m3.
